In general, inhibition refers to how much of the control response was suppressed.

Consider 6 molecules from patent US20060280725A1, “Compositions and methods of treating and diagnosing hepatoma” (priority 2003, published 2006).

Assay [1] concerns Hep3B, PLC/PRF/5, Focus and THLE-5B cell lines. Briefly: Amino acid inhibition analysis of Na+-dependent glutamine transport. The conditions noted are these: for inhibition at 5000 µM: Homo sapiens, unlabeled amino acid at 5 mM, 50 μM L-glutamine, Hep3B, PLC/PRF/5, Focus, THLE-5B, read-out: inhibition of glutamine uptake. It counts as cell-based, human. Here is the method:
(§1) FIG. 1. Amino acid inhibition analysis of glutamine transport in the Hep3B, PLC/PRF/5 and Focus human hepatoma cell lines and the THLE-5B SV40-immortalized human liver epithelial cell line. The Na^+-dependent transport of 50 μM L-glutamine was measured as described in the Methods section in the absence or presence of the indicated unlabeled amino acids at 5 mM. Testing of cysteine (CYSH) required the presence of 5 mM dithiothreitol (DTT) as a reducing agent, so DTT was tested alone as well. Arrows indicate the relative transport rates for 50 μM L-glutamine in primary human adult (solid arrow) and fetal (open arrow) hepatocytes. The results represent the average±SD of four separate determinations (*p<0.010 versus control). The Eadie-Hofstee plots of the kinetic analyses are shown as an inset in each figure, with the dashed lines representing the resolved high and low affinity components of the composite data (solid line). The derived values of the kinetic constants for each component are given in the Results section.
(§2) Glutamine Transport Assays. Measurement of initial-rate glutamine uptake was carried out via the cluster-tray method originally described by Gazzola (21) as reported previously (6, 9). Briefly, after trypsinization hepatoma cells were plated at a density of 1×10^5 cells/well in 24-well culture plates (Costar Corp., Cambridge, Mass.) and allowed to grow to >80% confluence, typically one to two days later. For initial-rate measurements, the radiotracer utilized was L-[G-^3H] glutamine (Amersham Corp., Arlington Heights, Ill.) at 4 μCi/ml, in the presence of unlabeled L-glutamine at 50 μM. For kinetic studies, the amount of unlabeled glutamine in the transport buffer varied from 10 μM to 10 mM. All transport measurements were carried out at 37° C. and were terminated after 30 s by three rapid washes with an ice-cold phosphate-buffered saline solution. Intracellular radiolabeled glutamine was extracted with 0.2 ml/well of 0.2% sodium dodecyl sulfate (SDS) and 0.2 N NaOH; after 1 h, 0.1 ml of the lysate was neutralized with 10 μl of 2 N HCl and subjected to scintillation spectrophotometry in a Packard TopCount™ (Packard Instruments, Meriden, Conn.). The remaining lysate was utilized for the determination of cellular protein by the bicinchoninic acid (BCA) method (Pierce Chemical Co., Rockford, Ill.). Rates of glutamine transport were calculated from the cpm per sample, the specific activity of the uptake mix (in cpm/nmol) and normalized to cellular protein content in a Microsoft Excel® spreadsheet program. Transport values obtained in the absence of extracellular Na^+ (diffusion and Na^+-independent uptake) were subtracted from those in the presence of Na^+ (total uptake) to yield Na^+-dependent rates which are reported in units of nmol•mg^−1 protein•30 s^−1. […]

In assay [2] the test system is human fetal liver fibroblasts (HFLF). Briefly: Glutamine transport assay (inhibition and kinetic analysis). It counts as cell-based. The conditions noted are these: 5 mM, 50 μM L-glutamine. Here is the method:
FIG. 5. Functional and molecular assessment of ATB^0 expression in human fetal liver fibroblasts (HFLF) and cirrhotic liver tissue. A) Amino acid inhibition analysis of Na^+-dependent glutamine uptake in human fetal liver fibroblasts. Fibroblasts were isolated and cultured as described in the Methods section, and amino acid inhibition analysis of 50 μM L-glutamine uptake was carried out as described in FIG. 1. *p<0.010 vs. control. The Eadie-Hofstee plot of the kinetic analysis is shown as an inset, with the dashed lines representing the resolved high and low affinity components of the composite data (solid line). The derived values of the kinetic constants for each component are given in the Results section. B) Northern blot analysis of ATB^0 expression in HFLF. Radiolabeled cDNA probes were generated with the Megaprime™ kit as described in the Methods section, and hybridized to 20 μg of total RNA from HFLF. Exposure time was 24 h. C) RT-PCR and restriction enzyme analysis of ATB^0 expression in HFLF, normal and cirrhotic liver. The analysis was carried out exactly as described in FIG. 3. Omission of RT is shown for the normal liver sample. D) Expression of ATB^0 in biopsies from a patient with liver cirrhosis and hepatocellular carcinoma (HCC). Northern blot analysis of ATB^0 & SN1 expression were performed on RNA extracted from the snap-frozen biopsies. RNA isolation and northern blot analysis was carried out as described in the Methods section, with full-length riboprobes used for detection of transporter mRNA. Exposure times for the blots are shown to illustrate relative expression levels for ATB^0 in each of the samples.
as §2, with “s^−1. All transport values depicted are the average±standard deviation of four separate determinations. Kinetic analysis of Eadie-Hofstee linearized transport data (v vs. v/[L-GLN]) was performed by regression analysis (Cricket Graph®, Computer Associates, Islandia, N.Y.). Nonlinear regression analysis was performed with DataDesk (Data Description, Inc. Ithaca, N.Y.) and Excel for two component Michaelis-Menten kinetics: v=((Vmax1×[S])/(Km1+[S])+(Vmax2×[S])/(Km2+[S])).” for “s^−1.”

Assay [3] concerns SK-Hep cells. Put plainly: Poly IC treatment of SK-Hep cells (growth, viability, apoptosis). It counts as cell-based, human. On the procedure:
Possible role of a PKR response in hepatoma apoptosis. Given the marked effect of induced ATB^0/ASCT2 antisense RNA expression on hepatoma viability and apoptosis, the possibility that the transporter knockdown response was a nonspecific double stranded RNA-dependent protein kinase (PKR) (62) mediated event was considered. To this end, cells were treated with Polyriboinosinic-polyribocytidylic acid (poly IC)—a mimic of double stranded RNA and stimulator of PKR in mammalian cells.
The mechanism leading from ATB^0/ASCT2 inhibition to apoptosis is unclear, but is currently being investigated. As we ruled out a nonspecific double stranded RNA (PKR) response (FIG. 14), we hypothesize that another cellular stress pathway links transporter suppression to apoptosis. Specifically, oxidative stress may be involved due to the likely loss of the antioxidant glutathione after diminution of its precursor glutamine (65, 66). PKR phosphorylates the α chain of the eukaryotic translation initiation factor eIF2 inhibiting the guanine nucleotide exchange factor eIF2B and turning off protein synthesis. In this respect, the selective expression of ATB^0/ASCT2 in cancerous versus normal human liver cells remains important since tumor-specific activation of PKR has recently been used to inhibit glioma growth in vivo [68]. […]

For assay [4], the system named is SK-Hep cells. Put plainly: Na+-dependent glutamine transport assay in SK-Hep cells and transfected clones. It counts as cell-based, human. The note with it: SK-Hep parent cells. Here is the method:
FIG. 10. Effect of induced ATB0/ASCT2 antisense RNA expression on Na^+-dependent glutamine uptake. Cultures of the SK-Hep parent cell line and SK-Hep cells stably transfected with a 1.3 kb ATB^0 construct in the sense orientation (Sense 2-1) or antisense orientation (Antisense 1-1) were treated with inducer (MFP, 10 nM) or vehicle (ethanol, 0.1%) at time zero. At the indicated times thereafter, the initial rate (30 s) Na^+-dependent transport velocity of 50 μM L-glutamine was measured by radiotracer analysis as described in the methods section. The results represent the average±SD of four separate determinations. *p<0.050 versus control. **p<0.010 versus control.
Glutamine Transport Assays. Measurement of initial-rate Na^+-dependent glutamine uptake was performed by radiotracer analysis using the cluster tray method described in detail previously (57). Initial rate transport velocities are expressed as the average±SD of at least four separate determinations. The transport data was analyzed for significant differences using a t-test with a p<0.050 considered significant.
Inpact of antisense ATB^0/ASCT2 RNA on glutamine transport rates. In order to determine the functional effect of targeting ATB^0/ASCT2 mRNA, glutamine transport rates were measured.

The test system of assay [5] is SK-Hep cells. Put plainly: Cellular quantification (hemacytometer cell number, viability). It counts as cell-based, human. The conditions noted are these: treatment with MFP. On the procedure:
FIG. 11. Effect of induced antisense RNA expression and glutamine deprivation on cellular proliferation and viability. Cultures of SK-Hep cells stably transfected with a 1.3 kb ATB^0 construct in the antisense orientation (Antisense 1-1) were treated at time zero with either inducer (FP, 10 nM), vehicle (ethanol, 0.1%) or maintained in the presence (+GLN) or absence (−GLN) of glutamine (DMEM+10% dialyzed FBS±2 mM L-GLN). At the indicated times thereafter, cell number was calculated after trypsmization and subsequent counting on a hemacytometer. The results represent the average±SD of five separate determinations. **p<0.010 versus-MFP. ††p<0.010 versus+GLN. […]
Cellular Quantification. Initial screens of the stably transfected sense and antisense ATB^0/ASCT2 clones to MFP induction utilized the colorimetric MTT (3-[4,5-Dimethylthiazol-2-yl]-2,5-diphenyltetrazolium bromide (Sigma)) assay as previously described (57), using a spectrophotometric plate reader at a wavelength of 562 nm (Bio-Tek EL311SX, Winooski, Vt.). The absorbance is considered to be directly proportional to the number of metabolically active mitochondria, and by extension, the number of cells. In subsequent studies, cell number was quantified directly. At specific times after experimental treatment (±MFP or ±glutamine), cells were removed from the culture dish via trypsinization and quantified on a hemacytometer. […]

The next assay concerns THLE-5B. Briefly: Glutamine transport assay (inhibition and kinetic analysis). The assay is classed as cell-based, human. The conditions noted are these: 5 mM, 50 μM L-glutamine, p<0.050. On the procedure:
as §1
Glutamine Transport Assays. Measurement of initial-rate glutamine uptake was carried out via the cluster-tray method originally described by Gazzola (21) as reported previously (6, 9). Briefly, after trypsinization hepatoma cells were plated at a density of 1×10^5 cells/well in 24-well culture plates (Costar Corp., Cambridge, Mass.) and allowed to grow to >80% confluence, typically one to two days later. For initial-rate measurements, the radiotracer utilized was L-[G-^3H] glutamine (Amersham Corp., Arlington Heights, Ill.) at 4 μCi/ml, in the presence of unlabeled L-glutamine at 50 μM. For kinetic studies, the amount of unlabeled glutamine in the transport buffer varied from 10 μM to 10 mM. All transport measurements were carried out at 37° C. and were terminated after 30 s by three rapid washes with an ice-cold phosphate-buffered saline solution. Intracellular radiolabeled glutamine was extracted with 0.2 ml/well of 0.2% sodium dodecyl sulfate (SDS) and 0.2 N NaOH; after 1 h, 0.1 ml of the lysate was neutralized with 10 μl of 2 N HCl and subjected to scintillation spectrophotometry in a Packard TopCount™ (Packard Instruments, Meriden, Conn.). The remaining lysate was utilized for the determination of cellular protein by the bicinchoninic acid (BCA) method (Pierce Chemical Co., Rockford, Ill.). Rates of glutamine transport were calculated from the cpm per sample, the specific activity of the uptake mix (in cpm/nmol) and normalized to cellular protein content in a Microsoft Excel® spreadsheet program. Transport values obtained in the absence of extracellular Na^+ (diffusion and Na^+-independent uptake) were subtracted from those in the presence of Na^+ (total uptake) to yield Na^+-dependent rates which are reported in units of nmol•mg^−1 protein•30 s^−1. All transport values depicted are the average±standard deviation of four separate determinations. Kinetic analysis of Eadie-Hofstee linearized transport data (v vs. v/[L-GLN]) was performed by regression analysis (Cricket Graph®, Computer Associates, Islandia, N.Y.). Nonlinear regression analysis was performed with DataDesk (Data Description, Inc. Ithaca, N.Y.) and Excel for two component Michaelis-Menten kinetics: v=((Vmax1×[S])/(Km1+[S])+(Vmax2×[S])/(Km2+[S])).
It should be noted that extensive depletion of intracellular amino acid pools were not performed prior to transport measurements in these studies because we sought to assess glutamine uptake under more physiological conditions. […]

For `N[C@@H](CS)C(=O)O` [cysteine, reference compound], in assay [1], the inhibition at 5000 µM is greater than 80%. Further, in assay [2], the “inhibition of Na+-dependent glutamine uptake” value is recorded as “marked inhibition”.

Turning to “Polyriboinosinic-polyribocytidylic acid [poly IC]”, in the assay with SK-Hep cells [3], the “apoptotic response in SK-Hep cells” value is reported as “failed to elicit the apoptotic response” and the “growth or viability of SK-Hep cells” value is “failed to impact growth or viability”.

As for `C[C@H](N)C(=O)O` [alanine, reference compound], in assay [1], the inhibition at 5000 µM was greater than 80%. Besides, the “inhibition of Na+-dependent glutamine uptake” value in assay [2] is “marked inhibition”.

`CC#C[C@]1(O)CC[C@H]2[C@@H]3CCC4=CC(=O)CCC4=C3[C@@H](c3ccc(N(C)C)cc3)C[C@@]21C` [MFP, mifepristone]: the “decrease in glutamine transport rates” value was 23% in the assay with SK-Hep cells [4] (14 h MFP 10 nM, p<0.050, not reproduced in subsequent studies) and “not observed” with SK-Hep cells [4] (24 h MFP). For the same molecule, in the assay on SK-Hep cells [5], the “growth of the SK-Hep parent cell line” value is reported as “unaffected”.

`N[C@@H](CO)C(=O)O` [serine, reference compound]: in assay [1], the inhibition at 5000 µM is greater than 80%. Besides, in assay [2], the “inhibition of Na+-dependent glutamine uptake” value is “marked inhibition”.

As for `CNC(C)(C)C(=O)O` [MeAIB, alpha-(methylamino)isobutyric acid, reference compound], the “inhibition of glutamine uptake” value in assay [1] (5 mM, all cell lines except THLE-5B) is listed as “failed to significantly inhibit glutamine uptake”. Moreover, the diminished glutamine uptake in the assay on THLE-5B is on record as 29%. Also, the “inhibition of Na+-dependent glutamine uptake” value in assay [2] was “not”.
